Melting point data for two compounds are collected here from US10357035B2, “Microbiocidal anilide derivatives” (SYNGENTA PARTICIPATIONS AG, priority 2015, dated 2019).

As usually defined, the melting point is the temperature of the solid-liquid transition.

Structures are written as SMILES.

Turning to `CC1(C)CCC(Oc2ccc(NC(=O)c3cccc4ncoc34)c(F)c2)CC1` [I.r.133, N-[4-(4,4-dimethylcyclohexoxy)-2-fluoro-phenyl]-1,3-benzoxazole-7-carboxamide], the melting point lay within 130 to 132 °C.
Next, `COc1ccnc(C(=O)Nc2ccc(OC3CCCCC3)cc2)c1O` [I.b.66, N-[4-(cyclohexoxy)phenyl]-3-hydroxy-4-methoxy-pyridine-2-carboxamide]: 114 to 117 °C.
